What all share (format): functional
The subject of test [1] is Listeria monocytogenes. Briefly: Antibacterial activity against Listeria monocytogenes ATCC 15313 after 24 hrs by disk diffusion method.
Test [2] deals with Pseudomonas aeruginosa. Briefly: Antibacterial activity against Pseudomonas aeruginosa ATCC 27853 after 24 hrs by dilution method. To be noted: ATCC 27853, 24 h.
The subject of test [3] is Klebsiella pneumoniae. Briefly: Antibacterial activity against Klebsiella pneumoniae UC57 after 24 hrs by dilution method.
The test system of test [4] is Hanseniaspora guilliermondii. Briefly: Antifungal activity against Hanseniaspora guilliermondii DSM 3432 after 72 hrs by disk diffusion method.
Test [5] has as its system Escherichia coli. Briefly: Antibacterial activity against Escherichia coli ATCC 11230 after 24 hrs by dilution method. Conditions: ATCC 11230, 24 h.
Test [6] has as its system Bacillus cereus. Briefly: Antibacterial activity against Bacillus cereus ATCC 7064 after 24 hrs by disk diffusion method.
In test [7] the test system is Micrococcus luteus. Briefly: Antibacterial activity against Micrococcus luteus La 2971 after 24 hrs by disk diffusion method.
For test [8], the system named is Rhodotorula mucilaginosa. Briefly: Antifungal activity against Rhodotorula rubra DSM 70403 after 48 hrs by dilution method. To be noted: DSM 70403, 48 h.
Test [9] deals with Kluyveromyces marxianus. Briefly: Antifungal activity against Kluyveromyces fragilis NRRL 2415 after 48 hrs by dilution method. To be noted: NRRL 2415, 48 h.
In test [10] the test system is Pseudomonas aeruginosa. Briefly: Antibacterial activity against Pseudomonas aeruginosa ATCC 27853 after 24 hrs by disk diffusion method.
Test [11] relates to Staphylococcus aureus. Briefly: Antibacterial activity against Staphylococcus aureus ATCC 6538 after 24 hrs by dilution method. To be noted: ATCC 6538, 24 h.
Test [12] has as its system Listeria monocytogenes. Briefly: Antibacterial activity against Listeria monocytogenes ATCC 15313 after 24 hrs by dilution method. Conditions: ATCC 15313, 24 h.
In test [13] the test system is Candida albicans. Briefly: Antifungal activity against Candida albicans ATCC 10231 after 72 hrs by disk diffusion method.
The test system of test [14] is Mycolicibacterium smegmatis. Briefly: Antibacterial activity against Mycobacterium smegmatis CCM 2067 after 24 hrs by dilution method. To be noted: CCM 2067, 24 h.
In test [15] the test system is Staphylococcus aureus. Briefly: Antibacterial activity against Staphylococcus aureus ATCC 6538 after 24 hrs by disk diffusion method.
Test [16] has as its system Debaryomyces hansenii. Briefly: Antifungal activity against Debaryomyces hansenii DSM 70238 after 72 hrs by disk diffusion method.
For test [17], the system named is Kluyveromyces marxianus. Briefly: Antifungal activity against Kluyveromyces fragilis NRRL 2415 after 72 hrs by disk diffusion method.
Test [18] deals with Mycolicibacterium smegmatis. Briefly: Antibacterial activity against Mycobacterium smegmatis CCM 2067 after 24 hrs by disk diffusion method.
The test system of test [19] is Proteus vulgaris. Briefly: Antibacterial activity against Proteus vulgaris ATCC 8427 after 24 hrs by disk diffusion method.
Test [20] has as its system Hanseniaspora guilliermondii. Briefly: Antifungal activity against Hanseniaspora guilliermondii DSM 3432 after 48 hrs by dilution method. To be noted: DSM 3432, 48 h.
Test [21] has as its system Proteus vulgaris. Briefly: Antibacterial activity against Proteus vulgaris ATCC 8427 by after 24 hrs dilution method. To be noted: ATCC 8427, 24 h.
For test [22], the system named is Debaryomyces hansenii. Briefly: Antifungal activity against Debaryomyces hansenii DSM 70238 after 48 hrs by dilution method. To be noted: DSM 70238, 48 h.
In test [23] the test system is Bacillus cereus. Briefly: Antibacterial activity against Bacillus cereus ATCC 7064 after 24 hrs by dilution method. To be noted: ATCC 7064, 24 h.
The test system of test [24] is Klebsiella pneumoniae. Briefly: Antibacterial activity against Klebsiella pneumoniae UC57 after 24 hrs by disk diffusion method.
The subject of test [25] is Escherichia coli. Briefly: Antibacterial activity against Escherichia coli ATCC 11230 after 24 hrs by disk diffusion method.
The subject of test [26] is Candida albicans. Briefly: Antifungal activity against Candida albicans ATCC 10231 after 48 hrs by dilution method. Conditions: ATCC 10231, 48 h.
The test system of test [27] is Rhodotorula mucilaginosa. Briefly: Antifungal activity against Rhodotorula rubra DSM 70403 after 72 hrs by disk diffusion method.
Test [28] concerns Micrococcus luteus. Briefly: Antibacterial activity against Micrococcus luteus La 2971 after 24 hrs by dilution method.
In test [29] the test system is Escherichia coli. Briefly: Antibacterial activity against Escherichia coli ATCC 11230 at 10 ug after 24 hrs by disk diffusion method. Conditions: ATCC 11230, 24 h, read-out: IZ.
The test system of test [30] is Klebsiella pneumoniae. Briefly: Antibacterial activity against Klebsiella pneumoniae UC57 at 10 ug after 24 hrs by disk diffusion method. To be noted: read-out: IZ.
For test [31], the system named is Mycolicibacterium smegmatis. Briefly: Antibacterial activity against Mycobacterium smegmatis CCM 2067 at 10 ug after 24 hrs by disk diffusion method. Conditions: CCM 2067, 24 h, read-out: IZ.
Test [32] has as its system Listeria monocytogenes. Briefly: Antibacterial activity against Listeria monocytogenes ATCC 15313 at 10 ug after 24 hrs by disk diffusion method. To be noted: ATCC 15313, 24 h, read-out: IZ.
In test [33] the test system is Pseudomonas aeruginosa. Briefly: Antibacterial activity against Pseudomonas aeruginosa ATCC 27853 at 10 ug after 24 hrs by disk diffusion method. To be noted: ATCC 27853, 24 h, read-out: IZ.
The test system of test [34] is Micrococcus luteus. Briefly: Antibacterial activity against Micrococcus luteus La 2971 at 10 ug by disk diffusion method. Conditions: read-out: IZ.
The subject of test [35] is Staphylococcus aureus. Briefly: Antibacterial activity against Staphylococcus aureus ATCC 6538 at 10 ug after 24 hrs by disk diffusion method. Conditions: ATCC 6538, 24 h, read-out: IZ.
In test [36] the test system is Proteus vulgaris. Briefly: Antibacterial activity against Proteus vulgaris ATCC 8427 at 10 ug after 24 hrs by disk diffusion method. To be noted: ATCC 8427, 24 h, read-out: IZ.
In test [37] the test system is Bacillus cereus. Briefly: Antibacterial activity against Bacillus cereus ATCC 7064 at 10 ug after 24 hrs by disk diffusion method. To be noted: ATCC 7064, 24 h, read-out: IZ.
Test [38] concerns Micrococcus luteus. Briefly: Antibacterial activity against Micrococcus luteus La 2971 at 30 ug by disk diffusion method. Conditions: read-out: IZ.
The subject of test [39] is Proteus vulgaris. Briefly: Antibacterial activity against Proteus vulgaris ATCC 8427 at 30 ug after 24 hrs by disk diffusion method. Conditions: ATCC 8427, 24 h, read-out: IZ.
Test [40] relates to Listeria monocytogenes. Briefly: Antibacterial activity against Listeria monocytogenes ATCC 15313 at 30 ug after 24 hrs by disk diffusion method. To be noted: ATCC 15313, 24 h, read-out: IZ.
In test [41] the test system is Klebsiella pneumoniae. Briefly: Antibacterial activity against Klebsiella pneumoniae UC57 at 30 ug after 24 hrs by disk diffusion method. Conditions: read-out: IZ.
Test [42] has as its system Bacillus cereus. Briefly: Antibacterial activity against Bacillus cereus ATCC 7064 at 30 ug after 24 hrs by disk diffusion method. Conditions: ATCC 7064, 24 h, read-out: IZ.
Test [43] deals with Escherichia coli. Briefly: Antibacterial activity against Escherichia coli ATCC 11230 at 30 ug after 24 hrs by disk diffusion method. Conditions: ATCC 11230, 24 h, read-out: IZ.
In test [44] the test system is Staphylococcus aureus. Briefly: Antibacterial activity against Staphylococcus aureus ATCC 6538 at 30 ug after 24 hrs by disk diffusion method. To be noted: ATCC 6538, 24 h, read-out: IZ.
Test [45] has as its system Mycolicibacterium smegmatis. Briefly: Antibacterial activity against Mycobacterium smegmatis CCM 2067 at 30 ug after 24 hrs by disk diffusion method. To be noted: CCM 2067, 24 h, read-out: IZ.

≈ marks a conversion by molar mass, not a printed value.

Consider `c1ccc2[nH]c(CCSSCCc3nc4ccccc4[nH]3)nc2c1`, for which the “inhibition zone (IZ)” value amounted to 13 mm in the test on Listeria monocytogenes [1]; 12 mm in test [4]; 10 mm in the test with Bacillus cereus [6]; 12 mm in the test on Micrococcus luteus [7]; 11 mm in the test on Pseudomonas aeruginosa [10]; 14 mm in the test with Candida albicans [13]. The “inhibition zone (IZ)” value in the test on Staphylococcus aureus [15] is on record as 14 mm; with Debaryomyces hansenii [16], 11 mm; with Kluyveromyces marxianus [17] it was 15 mm; in test [18], 13 mm; with Proteus vulgaris [19] it was 14 mm; in the test with Klebsiella pneumoniae [24] it was 11 mm. In addition, the “inhibition zone (IZ)” value in the test on Escherichia coli [25] and with Rhodotorula mucilaginosa [27] was 12 mm in each case. Moreover, the MIC in the test on Pseudomonas aeruginosa [2] was found to be 50 µg/mL (≈ 141 µM); in the test on Klebsiella pneumoniae [3], 50 µg/mL (≈ 141 µM); in the test on Escherichia coli [5], 50 µg/mL (≈ 141 µM); against Rhodotorula mucilaginosa [8], 25 µg/mL (≈ 70.5 µM); against Kluyveromyces marxianus [9] it was 6.25 µg/mL (≈ 17.6 µM); against Staphylococcus aureus [11] it was 12.5 µg/mL (≈ 35.3 µM). Moreover, the minimum inhibitory concentration (MIC) in the test with Listeria monocytogenes [12] came to 12.5 µg/mL (≈ 35.3 µM); in test [14] it was 12.5 µg/mL (≈ 35.3 µM); in test [20], 12.5 µg/mL (≈ 35.3 µM); in the test on Proteus vulgaris [21], 12.5 µg/mL (≈ 35.3 µM); in the test on Debaryomyces hansenii [22], 25 µg/mL (≈ 70.5 µM); with Bacillus cereus [23] it was 100 µg/mL (≈ 282 µM). Moreover, the results for the MIC in the test on Candida albicans [26] and with Micrococcus luteus [28] were 12.5 µg/mL (≈ 35.3 µM) and 25 µg/mL (≈ 70.5 µM), respectively.
As to `Cl.c1ccc2[nH]c(CCSSCCc3nc4ccccc4[nH]3)nc2c1`, the “inhibition zone (IZ)” value in the test with Listeria monocytogenes [1] came out at 12 mm; in test [4], 16 mm; with Bacillus cereus [6] it was 12 mm; in the test on Micrococcus luteus [7], 14 mm; in the test with Pseudomonas aeruginosa [10], 12 mm; with Candida albicans [13] it was 17 mm. Also, the “inhibition zone (IZ)” value in the test on Staphylococcus aureus [15] is 16 mm; with Debaryomyces hansenii [16], 14 mm; in the test with Kluyveromyces marxianus [17], 18 mm; in test [18] it was 16 mm; with Proteus vulgaris [19] it was 16 mm; in the test on Klebsiella pneumoniae [24], 12 mm. The entries for the “inhibition zone (IZ)” value in the test on Escherichia coli [25] and in the test on Rhodotorula mucilaginosa [27] were 14 mm and 15 mm, respectively. The minimum inhibitory concentration (MIC) in the test on Pseudomonas aeruginosa [2] was found to be 25 µg/mL; against Klebsiella pneumoniae [3], 25 µg/mL; against Escherichia coli [5], 12.5 µg/mL; against Rhodotorula mucilaginosa [8], 12.5 µg/mL; in the test on Kluyveromyces marxianus [9] it was 3.12 µg/mL; against Staphylococcus aureus [11], 12.5 µg/mL. In addition, the MIC amounted to 12.5 µg/mL in the test on Listeria monocytogenes [12]; 6.25 µg/mL in test [14]; 6.25 µg/mL in [20]; 6.25 µg/mL in the test on Proteus vulgaris [21]; 12.5 µg/mL against Debaryomyces hansenii [22]; 50 µg/mL with Bacillus cereus [23]. In addition, the values for the minimum inhibitory concentration (MIC) against Candida albicans [26] and against Micrococcus luteus [28] were 6.25 µg/mL and 12.5 µg/mL, respectively.
On to `CC1(C)S[C@@H]2[C@H](NC(=O)[C@H](N)c3ccccc3)C(=O)N2[C@H]1C(=O)O` [AMPICILLIN], for which the zone of inhibition at 10 µg/disc in the test with Escherichia coli [29] turned out to be 12 mm; with Klebsiella pneumoniae [30], 14 mm; in test [31] it was 21 mm; in the test with Listeria monocytogenes [32] it was 12 mm; in the test with Pseudomonas aeruginosa [33], 10 mm; with Micrococcus luteus [34], 32 mm. Besides, the values for the zone of inhibition at 10 µg/disc with Staphylococcus aureus [35], in the test on Proteus vulgaris [36] and with Bacillus cereus [37] were 16 mm, 16 mm and 12 mm, respectively.
Turning to `CO/N=C(\C(=O)N[C@@H]1C(=O)N2C(C(=O)O)=C(COC(C)=O)CS[C@H]12)c1csc(N)n1` [CEFOTAXIME], the zone of inhibition at 30 µg/disc in the test with Micrococcus luteus [38] turned out to be 32 mm; in the test with Proteus vulgaris [39] it was 18 mm; in the test with Listeria monocytogenes [40] it was 16 mm; in the test on Klebsiella pneumoniae [41], 13 mm; with Bacillus cereus [42], 14 mm; with Escherichia coli [43], 10 mm. Moreover, the zone of inhibition at 30 µg/disc worked out at 12 mm with Staphylococcus aureus [44] and 11 mm in test [45].

Source of the values: ChEMBL document CHEMBL1147899, “Raman, FT-IR, NMR spectroscopic data and antimicrobial activity of bis[micro2-(benzimidazol-2-yl)-2-ethanethiolato-N,S,S-chloro-palladium(II)] dimer, [(micro2-CH2CH2NHNCC6H4)PdCl]2.C2H5OH complex” (2007).
